# PMC8143456 (Microorganisms, 2021)
# Read-outs that look alike come from different tables or passages of the source.
# Columns and labels:
# [1] = test system: SARS-CoV-2; conditions: Vero E6 cells ref 31; cited from earlier work
# [2] = molecular target: SARS-CoV-2 RNA polymerase complex (nsp12/nsp7/nsp8) (Severe acute respiratory syndrome coronavirus 2, UniProt P0DTD1); assay: SARS-CoV-2 RdRp primer extension assay; assay type: biochemical; conditions: 14-nucleotide RNA product on gel
# [3] = Cytotoxicity in Calu3 cells; conditions: human
# [4] = test system: SARS-CoV-2; assay: microbe, parasite or virus in culture; assay type: cell-based; conditions: for EC50: read-out: Antiviral Activity against SARS-CoV-2 Vero EC50; for EC90: read-out: Antiviral Activity against SARS-CoV-2 Vero EC90; for inhibition at 20 µM: read-out: inhibition of SARS-CoV-2 in the initial antiviral evaluation assay
# [5] = test system: SARS-CoV-2 pseudovirus; assay: microbe, parasite or virus in culture; assay type: cell-based; conditions: for inhibition at 1.1 µM / inhibition at 3.3 µM / inhibition at 10 µM / inhibition at 30 µM: Severe acute respiratory syndrome-related coronavirus, Huh7.5 cells, vs untreated sample, read-out: SARS-CoV-2 Pseudovirus Entry Inhibition (%)
# [6] = test system: SARS-CoV-2; assay: Time-of-drug-addition assay in Vero cells; assay type: cell-based; conditions: compound at EC90, Vero cells, MOI 0.1
# [7] = molecular target: SARS-CoV-2 nsp12 (RdRp) (Severe acute respiratory syndrome coronavirus 2, UniProt P0DTD1); conditions: nsp12, 50 µM compound vs DMSO
# [8] = test system: SARS-CoV-2; assay: SARS-CoV-2 antiviral activity assay in Calu-3 cells; assay type: cell-based
# [9] = molecular target: SARS-CoV-2 nsp14 (Severe acute respiratory syndrome coronavirus 2, UniProt P0DTD1); conditions: nsp14, 50 µM compound vs DMSO
# [10] = test system: SARS-CoV-2 3CL; conditions: enzyme-inhibition experiments ref 31; read-out: IC50, antiprotease activity against SARS-CoV-2 3CL; cited from earlier work
# [11] = molecular target: SARS-CoV-2 nsp5 (3CL protease) (Severe acute respiratory syndrome coronavirus 2, UniProt P0DTD1); conditions: nsp5, 50 µM compound vs DMSO
# [12] = test system: SARS-CoV-2 3CL protease (nsp5); design: method as in PMID 32746637; conditions: previous report ref 29; read-out: IC50, enzymatic activity of SARS-CoV-2 3CL protease (nsp5); cited from earlier work
# [13] = MTS cytotoxicity assay in Vero cells; conditions: African green monkey
# [14] = Severe acute respiratory syndrome coronavirus 2, 48 h, Vero cells, MOI 0.1, virus yield 2 days post-treatment
# [15] = Severe acute respiratory syndrome coronavirus 2, Vero
# [16] = Severe acute respiratory syndrome coronavirus 2, human Calu-3 cells, read-out: Antiviral Activity against SARS-CoV-2 Calu-3 EC50
# [17] = Severe acute respiratory syndrome coronavirus 2, human Calu-3 cells, read-out: Antiviral Activity against SARS-CoV-2 Calu-3 EC90
# [18] = Severe acute respiratory syndrome coronavirus 2, Vero, 48 h
Compound,EC50 [1] [µM],inhibition of SARS-CoV-2 RdRp activity (in words) [2],"EC50 [4, 14] [µM]","EC90 [4, 14] [µM]","inhibition at 20 µM [4, 15] [%]",inhibitory activity on SARS-CoV-2 cell entry (in words) [5],inhibition at 1.1 µM [5] [%],inhibition at 3.3 µM [5] [%],inhibition at 10 µM [5] [%],inhibition at 30 µM [5] [%],time of addition post-infection up to which replication is significantly inhibited [6],"EC50 [8, 16] [µM]","EC90 [8, 17] [µM]",IC50 [10] [µM],CC50 [3] [µM],other results
"O=c1cc(-c2ccccc2)oc2cc(O)c(O)c(O)c12 [Baicalein, baicalein]",2.94,more potent inhibition of SARS-CoV-2 RdRp activity compared to baicalin,4.5 ± 0.2,7.6 ± 0.3,99.8,no inhibitory activity,-2,-1.9,3.9,14.6,up to 8 h,1.2 ± 0.03,6.2 ± 0.04,0.94,–,CC50 ([3]; Calu3 cells): 91 ± 0.05 µM; ΔTm [7]: 3.9 °C; ΔTm [9]: 1.5 °C; ΔTm [11]: 0.9 °C
"CCC(CC)COC(=O)[C@H](C)N[P@](=O)(OC[C@H]1O[C@@](C#N)(c2ccc3c(N)ncnn23)[C@H](O)[C@@H]1O)Oc1ccccc1 [Remdesivir, reference compound]",–,–,–,–,–,–,–,–,–,–,–,–,–,–,> 100,"EC50 [4, 18]: 1 ± 0.1 µM; EC90 [4, 18]: 3.3 ± 0.3 µM; EC50 ([8]; Severe acute respiratory syndrome coronavirus 2, Calu-3, read-out: Antiviral Activity against SARS-CoV-2 Calu-3 EC50): 0.14 ± 0.02 µM; EC90 ([8]; Severe acute respiratory syndrome coronavirus 2, Calu-3, read-out: Antiviral Activity against SARS-CoV-2 Calu-3 EC90): 0.5 ± 0.03 µM"
"O=C(O)[C@H]1O[C@@H](Oc2cc3oc(-c4ccccc4)cc(=O)c3c(O)c2O)[C@H](O)[C@@H](O)[C@@H]1O [Baicalin, baicalin]",27.9,inhibit the activity of the SARS-CoV-2 RdRp,9 ± 0.08,15.8 ± 0.2,98,no inhibitory activity,-12.1,-11.9,-6.6,-3.3,up to 6 h,8 ± 0.11,15.1 ± 0.2,6.41,> 100,IC50 [12]: 34.7 µM; CC50 at 4 days [13]: > 100 µM
